Results published in BindingDB's records for doi:10.1021/acs.jmedchem.6b01578 (University of Bologna, 2017).
Values joined by “and” are separate entries in the source; they are usually repeats but may differ in a detail not shown here. Identical values can stand only once.

assay: Agonist activity at recombinant human CB1 receptor expressed in CHO-K1 cells assessed as increase in cAMP accumulation after 20 mins by HTRF assay

Row | SMILES | EC50
1 | CCCCCc1cc(O)c2c(c1)OC(C)(C)[C@@H]1CCC(C)=C[C@@H]21 [(10R,10aR)-6,6,9-Trimethyl-3-pentyl-6a,7,8,10a-tetrahydro-6H-benzo[c]chromen-1-ol] | 10 nM
2 | CCCCCCC(C)(C)c1ccc2c(c1)OC(C)(C)[C@@H]1CCC(CO)=C[C@@H]21 | 1.2 nM
3 | COc1cc(OC(=O)NCCCCN2CCN(c3cccc(Cl)c3Cl)CC2)ccc1-c1ccccc1 | 220 nM and 219 nM
4 | COc1ccccc1N1CCN(CCCCNC(=O)Oc2ccc3c(c2)[nH]c2ccccc23)CC1 | 2300 nM and 2340 nM
5 | CCCC(C)(C)c1ccc2c(c1)OC(C)(C)[C@@H]1CCC(C)=C[C@@H]21 | 667 nM
